Reference: patent US20080032950A1, “Neurologically-Active Compounds” (The University of Sydney, priority 2004, published 2008)
Where two headings read alike, the source gives them in different places.

Assays:
GABAC (ρ1) = target: T1, GABAC (ρ1) (Homo sapiens, UniProt P24046); assay: Two-electrode voltage clamp on ρ1 GABAC receptors expressed in Xenopus oocytes; type: cell-based; conditions: for Selectivity (receptor subtype preferred): among GABAA, GABAB, GABAC; for Selectivity (fold): for GABAC over GABAA and GABAB
T1 construct: expressed in transfected cells; host or cells: Xenopus laevis oocytes injected with mRNA
T1 sequence (P24046 22-479): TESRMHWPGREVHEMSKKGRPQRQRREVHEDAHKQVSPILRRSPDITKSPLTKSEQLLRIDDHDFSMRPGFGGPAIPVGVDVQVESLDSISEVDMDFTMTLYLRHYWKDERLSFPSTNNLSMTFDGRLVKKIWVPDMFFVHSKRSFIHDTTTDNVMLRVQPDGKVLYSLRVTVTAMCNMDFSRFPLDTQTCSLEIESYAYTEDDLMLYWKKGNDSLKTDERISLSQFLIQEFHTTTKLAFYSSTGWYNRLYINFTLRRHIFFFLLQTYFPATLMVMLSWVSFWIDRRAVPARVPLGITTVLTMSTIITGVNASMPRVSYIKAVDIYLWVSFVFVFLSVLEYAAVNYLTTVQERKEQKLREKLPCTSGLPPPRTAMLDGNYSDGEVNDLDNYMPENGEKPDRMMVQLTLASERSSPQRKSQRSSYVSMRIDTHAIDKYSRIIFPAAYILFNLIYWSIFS
Experimental: (§1) The activity of compounds (15), (16), (17), (18) and (19) on GABA receptor sub-types were determined as described in Chebib, M., Mewett, K. N., Johnston, G. A. R., 1998, “GABAC receptor antagonists differentiate between human ρ1 and ρ2 receptors expressed in Xenopus oocytes”, European Journal of Pharmacology 357, 227-234.
(§2) In this method, oocytes were harvested from Xenopus laevis and defolliculated. The oocytes were then stored in ND96 solution (96 mM NaCl, 2 mM KCl, 1.8 mM CaCl2.2H2O, 1 mM MgCl2.6H2O, 5 mM HEPES (hemi-Na), pH 7.5) supplemented with 2.5 mM sodium pyruvate, 0.5 mM theophylline and 50 μgml^−1 gentamycin. The storage solution was changed daily.
(§3) Stage V-VI oocytes were injected with mRNA (10 ng/50 nl) and then stored at 16° C. Recordings of receptor activity were obtained after two to eight days by a two-electrode voltage clamp by means of a Geneclamp 500 amplifier (Axon Instruments Inc., Foster City, Calif.), a MacLab 2e recorder (AD Instruments, Sydney, NSW) and Chart version 3.6.3 program. Oocytes were voltage clamped at −60 mV and the preparation was continually perfused with ND96 solution at room temperature. Known concentrations of agonists and antagonists dissolved in ND96 were applied in the absence and presence of GABA respectively until maximum current was reached, at which time the oocyte was washed for five to ten minutes to allow complete recovery of response to a known dose of GABA. In the case of antagonists, two dose response curves were conducted on the same cell to enable calculation of single point estimates: a GABA dose-response curve and a GABA dose-response curve in the presence of a known concentration of antagonist. All compounds were tested on oocytes from at least three harvests.
The activity of this compound on the GABA receptor sub-types was determined by the same procedure as described in Example 2 for compounds (15) to (19). (±)-3-Aminocyclopente-1-nyl)methylphosphinic acid (200 μM) had no effect alone on ρ1 GABAC receptors but in the presence of 1 μM GABA inhibited the response by 65%.

GABAA (α1β2γ2L) = target: T2, GABAA (α1β2γ2L) (Homo sapiens, UniProt P14867+P47870); assay: Two-electrode voltage clamp on GABAA receptors expressed in Xenopus oocytes; type: cell-based; conditions: for GABAA (α1β2γ2L) activity (type of action): Xenopus oocytes, voltage clamp -60 mV
T2 construct: expressed in transfected cells; host or cells: Xenopus laevis oocytes injected with mRNA
T2 sequence (P14867 28-456): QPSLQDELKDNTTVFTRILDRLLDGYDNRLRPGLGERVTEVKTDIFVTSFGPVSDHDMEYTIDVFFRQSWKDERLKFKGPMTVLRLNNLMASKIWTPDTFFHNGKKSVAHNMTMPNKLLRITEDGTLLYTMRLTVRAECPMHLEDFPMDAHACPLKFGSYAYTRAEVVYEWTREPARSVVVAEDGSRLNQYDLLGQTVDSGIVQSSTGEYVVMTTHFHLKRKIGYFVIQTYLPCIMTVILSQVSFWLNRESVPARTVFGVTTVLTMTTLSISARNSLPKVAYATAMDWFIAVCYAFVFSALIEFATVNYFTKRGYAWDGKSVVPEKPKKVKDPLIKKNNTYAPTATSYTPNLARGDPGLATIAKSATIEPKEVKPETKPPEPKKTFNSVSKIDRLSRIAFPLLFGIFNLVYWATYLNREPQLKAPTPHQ
T2 sequence (P47870 25-512 limits assumed): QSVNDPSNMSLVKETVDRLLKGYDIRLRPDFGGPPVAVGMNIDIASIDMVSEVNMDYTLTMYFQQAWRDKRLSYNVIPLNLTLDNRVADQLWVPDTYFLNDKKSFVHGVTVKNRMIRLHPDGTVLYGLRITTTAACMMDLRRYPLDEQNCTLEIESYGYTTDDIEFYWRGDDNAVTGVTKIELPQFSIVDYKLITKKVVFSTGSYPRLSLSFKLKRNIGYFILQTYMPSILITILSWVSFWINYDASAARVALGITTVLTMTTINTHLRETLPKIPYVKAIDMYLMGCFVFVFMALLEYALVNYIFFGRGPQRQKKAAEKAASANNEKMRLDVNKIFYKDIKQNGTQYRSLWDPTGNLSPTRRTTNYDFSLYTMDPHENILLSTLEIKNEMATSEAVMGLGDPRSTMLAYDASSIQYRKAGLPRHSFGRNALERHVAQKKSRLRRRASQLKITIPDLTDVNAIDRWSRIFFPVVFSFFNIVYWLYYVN
T2 sequence (P18507 40-475 partner): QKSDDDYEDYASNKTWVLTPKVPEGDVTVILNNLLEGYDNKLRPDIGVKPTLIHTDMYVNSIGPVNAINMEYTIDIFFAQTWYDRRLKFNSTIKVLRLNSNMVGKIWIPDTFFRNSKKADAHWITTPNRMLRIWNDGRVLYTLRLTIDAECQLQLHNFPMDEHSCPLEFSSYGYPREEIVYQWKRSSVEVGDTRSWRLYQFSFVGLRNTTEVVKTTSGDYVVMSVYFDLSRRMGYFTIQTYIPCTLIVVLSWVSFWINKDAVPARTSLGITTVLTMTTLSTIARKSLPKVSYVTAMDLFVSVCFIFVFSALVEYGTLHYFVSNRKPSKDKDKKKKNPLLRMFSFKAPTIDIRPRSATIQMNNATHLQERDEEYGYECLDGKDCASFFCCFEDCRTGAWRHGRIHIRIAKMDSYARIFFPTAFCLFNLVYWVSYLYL
Experimental: as §1, §2, §3

GABAB (GB1) = target: T3, GABAB (GB1) (Homo sapiens, UniProt Q9UBS5); assay: Two-electrode voltage clamp on GABAB receptors expressed in Xenopus oocytes; type: cell-based; conditions: for GABAB (GB1) activity (type of action): voltage clamp -60 mV
T3 construct: expressed in transfected cells; host or cells: Xenopus laevis oocytes injected with mRNA
T3 sequence (Q9UBS5 20-961, species assumed): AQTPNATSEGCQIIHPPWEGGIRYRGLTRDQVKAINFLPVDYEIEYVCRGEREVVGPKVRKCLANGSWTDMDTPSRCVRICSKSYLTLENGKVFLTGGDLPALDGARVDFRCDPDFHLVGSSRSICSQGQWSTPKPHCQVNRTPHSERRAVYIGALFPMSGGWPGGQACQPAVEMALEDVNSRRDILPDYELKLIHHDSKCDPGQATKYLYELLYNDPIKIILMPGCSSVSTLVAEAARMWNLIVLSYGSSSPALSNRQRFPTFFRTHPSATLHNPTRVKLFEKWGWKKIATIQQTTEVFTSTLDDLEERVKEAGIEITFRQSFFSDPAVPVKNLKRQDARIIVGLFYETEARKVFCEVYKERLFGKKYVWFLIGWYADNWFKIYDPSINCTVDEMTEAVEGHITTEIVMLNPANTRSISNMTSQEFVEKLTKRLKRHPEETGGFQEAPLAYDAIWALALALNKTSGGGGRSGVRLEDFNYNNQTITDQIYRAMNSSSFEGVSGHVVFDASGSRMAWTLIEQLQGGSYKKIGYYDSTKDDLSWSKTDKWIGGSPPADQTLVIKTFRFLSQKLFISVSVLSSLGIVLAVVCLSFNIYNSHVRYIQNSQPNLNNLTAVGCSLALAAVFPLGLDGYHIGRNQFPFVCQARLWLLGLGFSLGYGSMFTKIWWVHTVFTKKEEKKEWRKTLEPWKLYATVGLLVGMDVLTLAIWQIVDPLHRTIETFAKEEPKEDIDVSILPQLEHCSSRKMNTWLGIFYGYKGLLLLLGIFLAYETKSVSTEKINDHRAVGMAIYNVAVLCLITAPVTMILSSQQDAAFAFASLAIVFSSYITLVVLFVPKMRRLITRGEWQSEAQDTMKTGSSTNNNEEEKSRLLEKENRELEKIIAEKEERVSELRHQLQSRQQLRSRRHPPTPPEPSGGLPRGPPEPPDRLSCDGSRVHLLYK
T3 sequence (O75899 42-941 partner, species assumed): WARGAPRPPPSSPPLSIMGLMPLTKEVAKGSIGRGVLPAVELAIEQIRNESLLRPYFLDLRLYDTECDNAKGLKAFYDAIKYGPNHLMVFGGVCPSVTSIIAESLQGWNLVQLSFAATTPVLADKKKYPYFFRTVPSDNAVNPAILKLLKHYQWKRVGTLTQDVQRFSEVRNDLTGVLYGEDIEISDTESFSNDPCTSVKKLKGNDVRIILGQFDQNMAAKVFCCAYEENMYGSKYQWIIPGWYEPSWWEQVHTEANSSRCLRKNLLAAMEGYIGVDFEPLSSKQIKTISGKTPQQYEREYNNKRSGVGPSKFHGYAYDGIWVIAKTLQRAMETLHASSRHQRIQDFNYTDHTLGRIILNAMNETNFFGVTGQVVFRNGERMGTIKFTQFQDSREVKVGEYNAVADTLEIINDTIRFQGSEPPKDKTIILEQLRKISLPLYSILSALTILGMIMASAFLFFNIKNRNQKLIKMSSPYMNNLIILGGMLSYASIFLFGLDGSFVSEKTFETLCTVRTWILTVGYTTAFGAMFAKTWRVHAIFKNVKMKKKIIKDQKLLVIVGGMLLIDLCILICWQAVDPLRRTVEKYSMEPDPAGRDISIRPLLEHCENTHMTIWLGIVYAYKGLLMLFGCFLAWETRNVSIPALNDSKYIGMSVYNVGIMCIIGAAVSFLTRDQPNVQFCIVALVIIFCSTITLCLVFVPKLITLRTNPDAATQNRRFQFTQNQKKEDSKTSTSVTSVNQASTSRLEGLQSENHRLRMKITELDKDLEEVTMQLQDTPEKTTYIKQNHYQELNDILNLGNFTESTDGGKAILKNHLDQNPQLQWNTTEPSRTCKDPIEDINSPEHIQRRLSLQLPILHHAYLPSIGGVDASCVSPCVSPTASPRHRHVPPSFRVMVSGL
Experimental: as §1, §2, §3

GABAC receptors = conditions: antagonist; Woodward et al, 1993; cited from earlier work
GABAC receptor = GABAC receptor (Homo sapiens, UniProt P24046); conditions: cited from earlier work
Chain of GABAC receptor (P24046 22-479): as the sequence (P24046 22-479) above

[1] = Xenopus oocytes, voltage clamp -60 mV

Row | Molecule | GABAC (ρ1) activity (type of action) (GABAC (ρ1); [1]) | Selectivity (receptor subtype preferred) (GABAC (ρ1)) | Selectivity (fold) (GABAC (ρ1)) | IC50 (GABAA (α1β2γ2L)) [µM] | GABAA (α1β2γ2L) activity (type of action) (GABAA (α1β2γ2L)) | GABAB (GB1) activity (type of action) (GABAB (GB1); Xenopus oocytes) | IC50 (GABAB (GB1)) [µM] | Kb (GABAC receptors) [µM] | further results
1 | CP(=O)(O)C1=CCC(N)C1 (racemic) [Compound 15, (±)-(4-Aminocyclopent-1-enyl)methylphosphinic acid] | Antagonist | GABAC | ˜50x | > 300 | Antagonist | Partial Agonist | – | – | –
2 | CCP(=O)(O)C1=CCC(N)C1 (racemic) [Compound 16, (±)-(4-Aminocyclopent-1-enyl)ethylphosphinic acid] | Antagonist | GABAC | ˜25x | > 600 | Antagonist | Antagonist | > 300 | – | –
3 | CC(C)P(=O)(O)C1=CCC(N)C1 (racemic) [Compound 17, (±)-(4-Aminocyclopent-1-enyl)isopropylphosphinic acid] | Antagonist | GABAC | ˜50x | > 600 | Antagonist | Antagonist | > 300 | – | IC50 (GABAC (ρ1)): 6.34 µM
4 | CCCCP(=O)(O)C1=CCC(N)C1 (racemic) [Compound 18, (±)-(4-Aminocyclopent-1-enyl)butylphosphinic acid] | Antagonist | GABAC | ˜100x | > 300 | Antagonist | Antagonist | ~300 | – | –
5 | NC1CC=C(P(=O)(O)Cc2ccccc2)C1 (racemic) [Compound 19, (±)-(4-Aminocyclopent-1-enyl)benzylphosphinic acid] | Antagonist | – | – | – | Antagonist | – | – | – | IC50 (GABAC (ρ1); Xenopus oocytes, voltage clamp -60 mV, read-out: GABAC (ρ1) IC50): > 300 µM; GABAB (GB1) effect (GABAB (GB1); at ~300 μM, Xenopus oocytes): (No effect ˜ 300 μM)
6 | NCCC[PH](=O)O [CGP27492, 3-aminopropylphosphinic acid] | – | – | – | – | – | – | – | 0.8 | –
7 | CP(=O)(O)CCCN [CGP35024, (3-aminopropyl)methylphosphinic acid] | – | – | – | – | – | – | – | 0.8 | –
8 | NCCCP(=O)(O)O [Compound 3-APA, 3-aminopropylphosphonic acid] | – | – | – | – | – | – | – | 1.8 | –
9 | (1,2,5,6-tetrahydropyridine-4-yl)methylphosphinic acid [TPMPA] | – | – | – | – | – | – | – | – | Kb (GABAC receptor; antagonist, Murata et al, 1996, Ragozzinno et al, 1996, read-out: KB at GABAC receptors): 2.1 µM; IC50 (GABAC receptor; read-out: Concentration producing 50% inhibition of GABAC receptor activation): 2.1 µM
